Results as given in US5886190A, “Rapid synthesis and use of 18F-fluoromisonidazole and analogs” (priority 1997, dated 1999).
Several values for one entry are separate records, joined by “and”; a condition that tells them apart may be missing. Equal entries are not always repeated. Where two headings read alike, the source gives them in different places.

What was measured:
hypoxic cells = test: Selectivity to hypoxic cells (PET imaging, autoradiograms, biodistribution); conditions: in vivo
Protocol: (§1) The synthesis scheme for [^18 F]FETNIM is depicted in FIG. 6. Biodistribution studies of [^18 F]FETNIM were performed at 1, 2 and 4 hours in mammary tumor-bearing rats (10 μCi, iv, N=3/time interval). Autoradiograms were performed at 1 hour postinjection of [^18 F]FETNIM, and a comparison has been made with [^18 F]fluoromisonidazole (FMISO). Intratumoral oxygen tension measurements were performed using the Eppendorf computerized histographic system. Twenty to twenty-five pO2 measurements along each of 2 to 3 linear tracks were performed at 0.4 mm intervals on each tumor. PET imaging studies of [^18 F]FETNIM were performed in rabbits bearing V2 tumors (N=3, 4 mCI, iv) which were located on the right leg.
PET imaging was performed with a positron camera (Positron Corporation, Houston, Tex.). The tomograph has a field-of-view of 42 cm on transverse and 12 cm on coronal planes. The axial resolution on the reconstructed plane is 1.2 cm. […]
Female Fischer 344 rats (250-275 g) (Harlan, Inc., Indianapolis, Ind.) were inoculated with mammary tumor cells in the lumbar area using a 13762 tumor cell line (s.c. 10^5 cells/rat). […] The tissues were excised, weighed and counted for radioactivity. The percent of injected dose per gram of tissue weight was determined.

mammary tumor = test: Autoradiographic studies in tumor-bearing rats; conditions: 1 hour postinjection
Protocol: as §1
Female Fischer 344 mammary tumor-bearing rats (n=3) after receiving [^18 F]FETNIM (2 mCi, iv) were sacrificed at 1 h. […] The rats were sacrificed at 1 hour postinjection. The rat body was fixed in a carboxymethyl cellulose (4%) block. The frozen body in a block was mounted to a cryostat (LKB 2250 cryo-microtome, Ijamsville, Md.) and 40 μm coronal sections were made. The section was freeze dried, then mounted on a x-ray film (X-Omat AR, Kodak, Rochester, N.Y.) for 24 hours.

VX2 tumor = conditions: 4 mCi; 1 hour postinjection
Protocol: as §1
PET imaging was performed with a positron camera (Positron Corporation, Houston, Tex.). The tomograph has a field-of-view of 42 cm on transverse and 12 cm on coronal planes. The axial resolution on the reconstructed plane is 1.2 cm.
Three male New Zealand white rabbits each weighing 3 kg were inoculated at a single site in the right buttock area with a 0.5 ml suspension of minced VX2 tumor fragments (10^6 cells/rabbit). The tumors are maintained through serial animal passage and are available from the Department of Veterinary Medicine (The University of Texas M.D. Anderson Cancer Center, Houston, Tex.). […]

[1] = Hydrophilicity (from autoradiogram and chemistry); type: physicochemical; conditions: relative to comparator named in value
[2] = system: mammary tumor cells (13762 tumor cell line); conditions: for Tumor/blood count density ratio / Tumor/liver count density ratio / Tumor/muscle count density ratio / Blood, percent of injected dose/gram weight / Bone, percent of injected dose/gram weight / Kidney, percent of injected dose/gram weight / Liver, percent of injected dose/gram weight / Lung, percent of injected dose/gram weight / Muscle, percent of injected dose/gram weight / Spleen, percent of injected dose/gram weight / Tumor, percent of injected dose/gram weight: 10 μCi/rat iv, N = 3
Protocol: as §1
Female Fischer 344 rats (250-275 g) (Harlan, Inc., Indianapolis, Ind.) were inoculated with mammary tumor cells in the lumbar area using a 13762 tumor cell line (s.c. 10^5 cells/rat). […] Three groups of rats (N=3/group) were anesthetized with ketamine (10-15 mg/rat). The ^18 F-FETNIM reconstituted in 5% ethanol/saline was given to rats (10 μCi/rat, iv) and tissue distribution was conducted at 1h, 2h and 4h intervals. The tissues were excised, weighed and counted for radioactivity. The percent of injected dose per gram of tissue weight was determined.

[3] = in mice; cited from earlier work
patients = conditions: cited from earlier work
cancer of the pharynx = conditions: cited from earlier work
[4] = 1 hour, listed as [^18 F] Fluoroerythronitroimidazole
[5] = 2 hour, listed as [^18 F] Fluoroerythronitroimidazole
[6] = 4 hour, listed as [^18 F] Fluoroerythronitroimidazole

## O=[N+]([O-])c1nccn1C[C@H](O)[C@H](O)CF [[^18 F]FETNIM, [^18 F]fluoroerythro-2-nitroimidazole]
Hypoxic cells
  Selectivity to hypoxic cells: selective to hypoxic cells
Mammary tumor; 2 mCi iv
  Tumor visualization by autoradiography: the tumor could be visualized 1 hour postinjection
  Uptake in the center region of the tumor: lack of uptake
Mammary tumor
  Uptake in intestines and colon: high uptake
  Uptake in medullary of the kidney area: higher uptake
Mammary tumor; autoradiogram
  Differentiation of hypoxic versus necrotic regions in the tumor: could differentiate hypoxic versus necrotic regions in the tumor
VX2 tumor
  SUV value of the tumor: greater than 10
[1]
  Hydrophilicity: more hydrophilic than [^18 F]FMISO
[1]; listed as [^18 F]fluoroerythronitroimidazole
  Hydrophilicity: more hydrophilic than misonidazole
[2]; 1, 2 and 4 h
  Tumor/muscle, tumor/blood and tumor/liver count density ratios, change with time: showed increases with time
[2]; 1 hour
  Tumor/blood count density ratio: 2.29±0.599
  Tumor/liver count density ratio: 1.7600 ± 0.4415
  Tumor/muscle count density ratio: 0.66±0.267
  Blood, percent of injected dose/gram weight: 0.3493 ± 0.02173% of Injected Dose/Gram Weight
  Bone, percent of injected dose/gram weight: 0.2570 ± 0.14% of Injected Dose/Gram Weight
  Kidney, percent of injected dose/gram weight: 0.8860 ± 0.00424% of Injected Dose/Gram Weight
  Liver, percent of injected dose/gram weight: 0.4530 ± 0.01493% of Injected Dose/Gram Weight
  Lung, percent of injected dose/gram weight: 0.3577 ± 0.00723% of Injected Dose/Gram Weight
  Muscle, percent of injected dose/gram weight: 1.2600 ± 0.08627% of Injected Dose/Gram Weight
  Spleen, percent of injected dose/gram weight: 0.3183 ± 0.02011% of Injected Dose/Gram Weight
  Tumor, percent of injected dose/gram weight: 0.7957 ± 0.2036% of Injected Dose/Gram Weight
[2]; [4]
  Tumor/blood count density ratio: 2.2900 ± 0.5994
  Tumor/muscle count density ratio: 0.6602 ± 0.2666
[2]; 2 hour
  Tumor/blood count density ratio: 2.41±0.567
  Tumor/liver count density ratio: 1.7700 ± 0.2561
  Tumor/muscle count density ratio: 2.11±0.347
  Blood, percent of injected dose/gram weight: 0.1950 ± 0.02828% of Injected Dose/Gram Weight
  Bone, percent of injected dose/gram weight: 0.0810 ± 0.00424% of Injected Dose/Gram Weight
  Kidney, percent of injected dose/gram weight: 0.5145 ± 0.02334% of Injected Dose/Gram Weight
  Liver, percent of injected dose/gram weight: 0.3123 ± 0.08225% of Injected Dose/Gram Weight
  Lung, percent of injected dose/gram weight: 0.2107 ± 0.05713% of Injected Dose/Gram Weight
  Muscle, percent of injected dose/gram weight: 0.2670 ± 0.09036% of Injected Dose/Gram Weight
  Spleen, percent of injected dose/gram weight: 0.2013 ± 0.05918% of Injected Dose/Gram Weight
  Tumor, percent of injected dose/gram weight: 0.5516 ± 0.1582% of Injected Dose/Gram Weight
[2]; [5]
  Tumor/blood count density ratio: 2.4100 ± 0.5672
  Tumor/muscle count density ratio: 2.1100 ± 0.3468
[2]; 4 hour
  Tumor/blood count density ratio: 8.0±2.42 and 8.02±2.420
  Tumor/liver count density ratio: 4.3300 ± 1.31
  Tumor/muscle count density ratio: 5.92±2.240
  Blood, percent of injected dose/gram weight: 0.0993 ± 0.01266% of Injected Dose/Gram Weight
  Bone, percent of injected dose/gram weight: 0.0753 ± 0.0157% of Injected Dose/Gram Weight
  Kidney, percent of injected dose/gram weight: 0.4663 ± 0.06866% of Injected Dose/Gram Weight
  Liver, percent of injected dose/gram weight: 0.1843 ± 0.02458% of Injected Dose/Gram Weight
  Lung, percent of injected dose/gram weight: 0.1027 ± 0.02122% of Injected Dose/Gram Weight
  Muscle, percent of injected dose/gram weight: 0.1377 ± 0.01893% of Injected Dose/Gram Weight
  Spleen, percent of injected dose/gram weight: 0.0953 ± 0.01401% of Injected Dose/Gram Weight
  Tumor, percent of injected dose/gram weight: 0.8113 ± 0.3377% of Injected Dose/Gram Weight
[2]; [6]
  Tumor/blood count density ratio: 8.0200 ± 2.42
  Tumor/muscle count density ratio: 5.9200 ± 2.24

## COCC(O)Cn1ccnc1[N+](=O)[O-] (centres unmarked) [misonidazole]
[3]
  Dose which affects the neurotransmitter system: 0.76 mg/g
patients; clinical trials
  Dose-limiting toxicity: peripheral neuropathy that progressed to central nervous system toxicity if drug administration was not stopped
patients; human, in vivo
  Most common side effect: peripheral sensory neuropathy of the hands and feet
patients; large single doses
  Toxicity after large single doses: convulsions
patients; small multiple doses
  Toxicity following small multiple doses: encephalopathies
Cancer of the pharynx; human, in vivo
  Radiosensitizer potency: potent radiosensitizers
Cancer of the pharynx; patients with high hemoglobin levels and cancer of the pharynx
  Clinical benefit on addition: great benefit
